For seven compounds, GI50 and TGI results are on record in PubChem BioAssay (NCI).

Some test systems named below: CCRF-CEM leukemia; UO-31 renal; BT-549 breast; OVCAR-3 ovarian; SF-268 CNS; SNB-19 CNS; SK-MEL-5 melanoma; A549 NSCLC; SR leukemia; MDA-MB-231 breast.
What all share (assay): NCI tumour cell line growth inhibition, 48 h

Structures are written as SMILES. Several values for one entry are separate records, joined by “and”; a condition that tells them apart may be missing. Equal values may be shown once.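 A five-concentration, 48-hour dose response in 96-well plates underlies each endpoint, interpolated linearly between surrounding concentrations. The concentration for 50% growth inhibition is given as GI50. The concentration for full growth arrest is given as TGI.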

Consider `C=C(C(=O)c1ccccc1)C(NC(C)(C)C)c1ccccc1` (stereo not given), for which the GI50 in the assay with CCRF-CEM leukemia was 0.629 µM; in the assay with UO-31 renal it was 1.38 µM; in the assay on BT-549 breast it was 2.13 µM; in the assay on OVCAR-3 ovarian it was 1.3 µM; in the assay on SF-268 CNS, 3.61 µM; with SNB-19 CNS, 4.2 µM. Also, the GI50 is 1.45 µM with SK-MEL-5 melanoma, 2.74 µM in the assay with A549 NSCLC, 1.56 µM in the assay on SR leukemia and 2.06 µM in the assay on MDA-MB-231 breast. The TGI turned out to be 43.7 µM in the assay on CCRF-CEM leukemia; 2.85 µM in the assay with UO-31 renal; 4.6 µM in the assay on BT-549 breast; 3.24 µM in the assay on OVCAR-3 ovarian; 18.6 µM with SF-268 CNS; 16 µM in the assay with SNB-19 CNS. In addition, the TGI in the assay on SK-MEL-5 melanoma was found to be 2.82 µM; in the assay with A549 NSCLC it was 7.79 µM; in the assay with SR leukemia, 8.41 µM; with MDA-MB-231 breast it was 4.84 µM.

Consider `COc1ccc(OC)c(C2=C(c3cn(C)c4ccccc34)C(=O)NC2=O)c1`, for which the GI50 in the assay on CCRF-CEM leukemia, in the assay with UO-31 renal, in the assay on BT-549 breast, in the assay with OVCAR-3 ovarian, in the assay on SF-268 CNS and in the assay on SNB-19 CNS was above 25 µM in each case. In addition, the GI50 in the assay with SK-MEL-5 melanoma was above 25 µM; in the assay on A549 NSCLC, above 25 µM; in the assay on SR leukemia, 16.1 µM; with MDA-MB-231 breast it was above 25 µM. Moreover, the TGI in the assay on CCRF-CEM leukemia, in the assay on UO-31 renal, in the assay with BT-549 breast, in the assay with OVCAR-3 ovarian, with SF-268 CNS and in the assay with SNB-19 CNS was above 25 µM throughout. Further, the TGI with SK-MEL-5 melanoma, in the assay on A549 NSCLC, in the assay with SR leukemia and in the assay with MDA-MB-231 breast was above 25 µM in each case.

As for `COc1ccc(N=Nc2ccc(O)c(=O)cc2)cc1`, the GI50 in the assay on CCRF-CEM leukemia was 2.18 µM; in the assay on UO-31 renal, 2.91 µM; in the assay on BT-549 breast, 2.03 µM; in the assay on OVCAR-3 ovarian, 3.64 µM; in the assay with SF-268 CNS it was 3.62 µM; in the assay with SNB-19 CNS, 2.92 µM. The GI50 with SK-MEL-5 melanoma was 3.34 µM; in the assay with A549 NSCLC it was 3.02 µM; with SR leukemia, 3.79 µM; with MDA-MB-231 breast it was 4.62 µM. Moreover, the TGI is 9.94 µM in the assay on CCRF-CEM leukemia; above 100 µM with UO-31 renal; 11.6 µM with BT-549 breast; above 100 µM in the assay with OVCAR-3 ovarian; above 100 µM in the assay on SF-268 CNS; 51.6 µM with SNB-19 CNS. Moreover, the TGI with SK-MEL-5 melanoma was 16.2 µM; in the assay with A549 NSCLC, above 100 µM; in the assay on SR leukemia, above 100 µM; with MDA-MB-231 breast, above 100 µM.

For the compound `COc1ccc2[nH]c(C(=O)OCc3ccc4c(Br)cc(Br)c(O)c4n3)cc2c1`, the GI50 with CCRF-CEM leukemia was 0.331 µM; with UO-31 renal it was 0.36 µM; with BT-549 breast it was 0.881 µM; in the assay with OVCAR-3 ovarian, 0.447 µM; with SF-268 CNS, 1.48 µM; in the assay on SNB-19 CNS, 1.5 µM. Also, the GI50 in the assay with SK-MEL-5 melanoma was 1.61 µM; in the assay with A549 NSCLC, 1.63 µM; in the assay with SR leukemia it was 0.293 µM; with MDA-MB-231 breast it was 0.808 µM. Further, the TGI with CCRF-CEM leukemia is above 100 µM; with UO-31 renal it was 1.85 µM; with BT-549 breast, 2.16 µM; in the assay on OVCAR-3 ovarian it was 1.56 µM; in the assay with SF-268 CNS, 2.92 µM; in the assay on SNB-19 CNS, 2.89 µM. Also, the TGI in the assay with SK-MEL-5 melanoma was determined as 2.97 µM; in the assay on A549 NSCLC, 3.54 µM; with SR leukemia, 2.04 µM; with MDA-MB-231 breast it was 2.17 µM.

On to `CN1C(=O)C(N=Nc2ccc([N+](=O)[O-])cc2)SC1=S` (stereo not given), for which the GI50 in the assay on CCRF-CEM leukemia is 6.51 µM; in the assay on UO-31 renal, 1.26 µM and 3.55 µM; in the assay on BT-549 breast, 4.45 µM and 6.28 µM; in the assay on OVCAR-3 ovarian, 2.7 µM and 10.9 µM; with SF-268 CNS it was 6.1 µM and 17.3 µM; with SNB-19 CNS, 6.62 µM and 11 µM. For the same compound, the GI50 in the assay with SK-MEL-5 melanoma is 7.77 µM and 11.1 µM; with A549 NSCLC, 5.78 µM and 14.1 µM; in the assay on SR leukemia it was 2.66 µM and 4.47 µM; in the assay with MDA-MB-231 breast it was 13.3 µM and 11.7 µM. Also, the TGI in the assay with CCRF-CEM leukemia is above 100 µM; in the assay with UO-31 renal, 8.82 µM and 74.7 µM; in the assay on BT-549 breast, 42.8 µM and 40.6 µM; in the assay with OVCAR-3 ovarian, 12.9 µM and 71.9 µM; with SF-268 CNS it was 99.5 µM and > 100 µM; with SNB-19 CNS it was above 100 µM. Further, the TGI with SK-MEL-5 melanoma was 28.9 µM and 27 µM; in the assay with A549 NSCLC, above 100 µM; in the assay with SR leukemia it was above 100 µM; with MDA-MB-231 breast, 51 µM and 44.3 µM.

As for `O=C(O)CN1C(=O)OC(c2ccccc2)C1=O` (stereo not given), the TGI with CCRF-CEM leukemia, in the assay with UO-31 renal, with BT-549 breast, in the assay with OVCAR-3 ovarian, in the assay on SF-268 CNS and in the assay on SNB-19 CNS was above 100 µM in each case. Also, the TGI with SK-MEL-5 melanoma, in the assay on A549 NSCLC, in the assay on SR leukemia and in the assay with MDA-MB-231 breast was above 100 µM in each case.

In the case of `Clc1nc(Cl)c2ncn(-c3ccccc3)c2n1`, the GI50 in the assay on CCRF-CEM leukemia was 2.7 µM; in the assay with UO-31 renal it was 1.63 µM; in the assay on BT-549 breast, 15.9 µM; with OVCAR-3 ovarian it was 1.69 µM; with SF-268 CNS, 3.26 µM; in the assay on SNB-19 CNS it was 10.7 µM. Also, the GI50 in the assay with SK-MEL-5 melanoma was 10.4 µM; in the assay with A549 NSCLC it was 12.9 µM; in the assay on SR leukemia, 2.73 µM; with MDA-MB-231 breast, 10.7 µM. In addition, the TGI in the assay with CCRF-CEM leukemia turned out to be 6.55 µM; with UO-31 renal, 3.13 µM; with BT-549 breast, 29.5 µM; in the assay with OVCAR-3 ovarian, 3.46 µM; in the assay with SF-268 CNS it was 15.4 µM; in the assay on SNB-19 CNS it was 23.9 µM. The TGI in the assay with SK-MEL-5 melanoma worked out at 22.3 µM; in the assay with A549 NSCLC it was 29.8 µM; with SR leukemia, 9.51 µM; with MDA-MB-231 breast it was 24.5 µM.
